Measurements taken from ChEMBL document CHEMBL3804804, “Synthesis and antimycobacterial activity of N-(2-aminopurin-6-yl) and N-(purin-6-yl) amino acids and dipeptides” (Bioorg Med Chem Lett, 2016).
Values after ≈ are worked out from the molar mass of the structure shown.

Tests used:
Mycobacterium avium = test: Antimycobacterial activity against Mycobacterium avium after 10 days by micro broth dilution method; type: functional; details: 240 h
Mycolicibacter terrae = test: Antimycobacterial activity against Mycobacterium terrae after 10 days by micro broth dilution method; type: functional; details: 240 h
[1] = tested on: Mycobacterium tuberculosis; test: Antimycobacterial activity against Mycobacterium tuberculosis H37Rv after 10 days by micro broth dilution method; type: functional; details: 240 h
[2] = Cytotoxicity against human FEH cells after 72 hrs by MTT assay; type: cell-based

Row | SMILES | MIC (Mycobacterium avium) [µg/mL] | MIC (Mycolicibacter terrae) [µg/mL] | MIC [1] [µg/mL] | IC50 [2] [µM]
1 | CC1COc2c(N3CCN(C)CC3)c(F)cc3c(=O)c(C(=O)O)cn1c23 (stereo unspecified) [OFLOXACIN] | 0.1 (≈ 0.277 µM) | 0.1 (≈ 0.277 µM) | 0.1 (≈ 0.277 µM) | 
2 | COC(=O)[C@@H](NC(=O)CNc1nc(NC(C)=O)nc2[nH]cnc12)C(C)C |  |  | 12.5 (≈ 34.4 µM) | 
3 | COC(=O)[C@H](C)NC(=O)CNc1nc(NC(C)=O)nc2[nH]cnc12.O |  |  | 12.5 | 
4 | CC(=O)Nc1nc(N2CCC[C@H]2C(=O)OC(C)(C)C)c2nc[nH]c2n1 | 6.25 (≈ 18 µM) | 6.25 (≈ 18 µM) | 6.25 (≈ 18 µM) | > 50
5 | COC(=O)[C@H](CC(C)C)NC(=O)CNc1ncnc2[nH]cnc12 |  |  | 12.5 (≈ 39 µM) | 
6 | CC(=O)Nc1nc(N[C@@H](CC(=O)OC(C)(C)C)C(=O)OC(C)(C)C)c2nc[nH]c2n1 |  |  | 12.5 (≈ 29.7 µM) | 
7 | COC(=O)CC[C@H](NC(=O)CNc1ncnc2[nH]cnc12)C(=O)OC |  |  | 12.5 (≈ 35.7 µM) | 
8 | COC(=O)CNc1nc(N)nc2[nH]cnc12.Cl.Cl | 6.25 | 6.25 | 6.25 | > 50
9 | CC(C)[C@H](NC(=O)CNc1nc(N)nc2[nH]cnc12)C(=O)O.O.O |  |  | 12.5 | 
10 | CC(=O)Nc1nc(N[C@@H](C)C(=O)OC(C)(C)C)c2nc[nH]c2n1 |  |  | 12.5 (≈ 39 µM) | 
11 | CC(=O)Nc1nc(N[C@H](C(=O)OC(C)(C)C)C(C)C)c2nc[nH]c2n1 |  |  | 12.5 (≈ 35.9 µM) | 
12 | COC(=O)[C@@H](NC(=O)CNc1ncnc2[nH]cnc12)C(C)C |  |  | 12.5 (≈ 40.8 µM) | 
13 | O=C(O)CCNc1[nH]cnc2ncnc1-2 |  |  | 12.5 (≈ 60.3 µM) | 
14 | COC(=O)C[C@H](NC(=O)CNc1nc(NC(C)=O)nc2[nH]cnc12)C(=O)OC |  |  | 12.5 (≈ 31.8 µM) | 
15 | Nc1nc(NCC(=O)N[C@@H](CC(=O)O)C(=O)O)c2nc[nH]c2n1 |  |  | 12.5 (≈ 38.7 µM) | 
16 | O=C(O)CNc1ncnc2[nH]cnc12 |  |  | 6.25 (≈ 32.4 µM) | 
17 | COC(=O)[C@H](Cc1ccccc1)NC(=O)CNc1ncnc2[nH]cnc12 | 1.5 (≈ 4.23 µM) | 1.5 (≈ 4.23 µM) | 1.5 (≈ 4.23 µM) | > 50
18 | Nc1nc(N[C@@H](Cc2ccccc2)C(=O)O)c2nc[nH]c2n1 |  |  | 12.5 (≈ 41.9 µM) | 
19 | CC(C)[C@H](Nc1nc(N)nc2[nH]cnc12)C(=O)O | 6.25 (≈ 25 µM) | 6.25 (≈ 25 µM) | 6.25 (≈ 25 µM) | > 50
20 | CC(C)C[C@H](NC(=O)CNc1ncnc2[nH]cnc12)C(=O)O.O |  |  | 12.5 | 
21 | O.O=C(CNc1ncnc2[nH]cnc12)N[C@@H](Cc1ccccc1)C(=O)O |  |  | 3.1 | > 50
22 | COC(=O)[C@H](Cc1ccccc1)NC(=O)CNc1nc(NC(C)=O)nc2[nH]cnc12 |  |  | 12.5 (≈ 30.4 µM) | 

Row | SMILES | MIC (Mycobacterium avium) [µg/mL] | MIC (Mycolicibacter terrae) [µg/mL] | MIC [1] [µg/mL] | IC50 [2] [µM]
23 | C[C@H](NC(=O)CNc1nc(N)nc2[nH]cnc12)C(=O)O.O |  |  | 6.25 | 
24 | CC(C)C[C@H](NC(=O)CNc1nc(N)nc2[nH]cnc12)C(=O)O.O |  |  | 12.5 | 
25 | COC(=O)[C@H](CCSC)NC(=O)CNc1ncnc2[nH]cnc12 |  |  | 12.5 (≈ 36.9 µM) | 
26 | Nc1nc(N2CCC[C@H]2C(=O)O)c2nc[nH]c2n1 |  |  | 12.5 (≈ 50.4 µM) | 
27 | C[C@H](Nc1nc(N)nc2[nH]cnc12)C(=O)O |  |  | 12.5 (≈ 56.3 µM) | 
28 | C[C@H](NC(=O)CNc1ncnc2[nH]cnc12)C(=O)O.O |  |  | 12.5 | 
29 | NNC(=O)c1ccncc1 [ISONIAZID] | 0.1 (≈ 0.729 µM) | 0.1 (≈ 0.729 µM) | 0.1 (≈ 0.729 µM) | 
30 | COC(=O)CC[C@H](NC(=O)CNc1nc(NC(C)=O)nc2[nH]cnc12)C(=O)OC |  |  | 12.5 (≈ 30.7 µM) | 
31 | O=C(O)CCCNc1ncnc2[nH]cnc12 |  |  | 12.5 (≈ 56.5 µM) | 
32 | CSCC[C@H](NC(=O)CNc1nc(N)nc2[nH]cnc12)C(=O)O.O | 3.1 | 3.1 | 3.1 | > 50
33 | Nc1nc(NCC(=O)N[C@@H](CCC(=O)O)C(=O)O)c2nc[nH]c2n1 | 0.35 (≈ 1.04 µM) | 0.35 (≈ 1.04 µM) | 0.7 (≈ 2.08 µM) | > 50
34 | Nc1nc(NCC(=O)N[C@@H](Cc2ccccc2)C(=O)O)c2nc[nH]c2n1.O.O |  |  | 6.25 | 
35 | CC(=O)Nc1nc(N[C@@H](Cc2ccccc2)C(=O)OC(C)(C)C)c2nc[nH]c2n1 |  |  | 12.5 (≈ 31.5 µM) | 
36 | CC(C)[C@H](NC(=O)CNc1ncnc2[nH]cnc12)C(=O)O.O |  |  | 12.5 | 
37 | CSCC[C@H](NC(=O)CNc1ncnc2[nH]cnc12)C(=O)O.O |  |  | 12.5 | 
38 | CC(=O)Nc1nc(NCC(=O)O)c2nc[nH]c2n1 | 0.7 (≈ 2.8 µM) | 0.7 (≈ 2.8 µM) | 0.7 (≈ 2.8 µM) | > 50
39 | COC(=O)[C@H](CC(C)C)NC(=O)CNc1nc(NC(C)=O)nc2[nH]cnc12 |  |  | 12.5 (≈ 33.1 µM) | 
40 | COC(=O)[C@H](C)NC(=O)CNc1ncnc2[nH]cnc12 |  |  | 12.5 (≈ 44.9 µM) | 
41 | Nc1nc(NCC(=O)O)c2nc[nH]c2n1 |  |  | 12.5 (≈ 60 µM) | 
42 | O=C(O)CCCCCNc1ncnc2[nH]cnc12 |  |  | 12.5 (≈ 50.1 µM) | 
43 | O.O=C(O)CC[C@H](NC(=O)CNc1ncnc2[nH]cnc12)C(=O)O | 0.7 | 0.7 | 0.7 | > 50
44 | COC(=O)[C@H](CCSC)NC(=O)CNc1nc(NC(C)=O)nc2[nH]cnc12 | 3.1 (≈ 7.84 µM) | 1.5 (≈ 3.79 µM) | 3.1 (≈ 7.84 µM) | > 50
